From patent US11807693B2 (priority 2014, dated 2023) come the findings set out here.

Starred links: 1 amine or outer side, 2 acyl side, 3 side chain; linkers in the order of their positions; H or OH if unused. Non-standard residues stand in square brackets, D forms with d. Residues, ends and D or L forms follow the SMILES beside them. ξ: configuration not given here. *: point of attachment. Oic = O=C(O)[C@@H]1C[C@@H]2CCCC[C@@H]2N1; Phe(4-Cl) = N[C@@H](Cc1ccc(Cl)cc1)C(=O)O; γGlu = O=C(O)[C@H](CCC(=O)[*:2])N[*:1]; d(β3hF) = N[C@@H](CC(=O)O)Cc1ccccc1; NMeR = CN[C@@H](CCCNC(=N)N)C(=O)O; Tridecanoyl = CCCCCCCCCCCCC(=O)*; hArg = N=C(N)NCCCC[C@H](N)C(=O)O; Cha = N[C@@H](CC1CCCCC1)C(=O)O; Tle = CC(C)(C)[C@H](N)C(=O)O; β3hV = CC(C)[C@H](N)CC(=O)O; Nle = CCCC[C@H](N)C(=O)O; ξαMeP = CC1(C(=O)O)CCCN1; ξβ3hV = CC(C)C(N)CC(=O)O; AEEA = NCCOCCOCC(=O)O Where only a bound is given, the exact number is not on record here.

A word on the fraction remaining: it is the share of the starting amount still present when the sample was taken. A low value points to a greater loss.

What all share (format): in vitro ADME
The nature of series [1]: In vitro stability in rat plasma. An outline of the steps:
(§1)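 Peptide 5 μM final; rat plasma / liver homog. / kidney homog.; 37° C., 4 hr. Quench MeOH + IS, vortex 15 min RT, spin 5500 g 15 min; supernatant by HR LC-MS.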

A short description of series [2]: In vitro stability in rat liver homogenate. The following applies: tissue homogenate. An outline of the steps: as §1
Series [3] can be described thus: In vitro stability in rat kidney homogenate. Particulars: rat, tissue homogenate. As for the experimental part:
Apelin peptides were spiked into rat plasma, liver homogenate, and kidney homogenate, which were obtained from commercial sources, to a final concentration of 5 μM. The samples were then incubated at 37° C. over a period of 4 hr. […] In a typical experiment, an aliquot of 100 μL of sample was taken from the incubation vial, followed by addition of 300 μL of MeOH containing internal standard. The quenched sample was centrifuged at 5500 g for 15 min after 15 min vortex in room temperature. The supernatant was then analyzed by high resolution LC-MS. […] In vitro plasma, […], and kidney stability results are shown below in Table 14.

In the case of `CCCCCCCCCCCCC(=O)N[C@@H](CCC(=O)NCCOCCOCC(=O)NCCOCCOCC(=O)N[C@@H](CCCC)C(=O)N[C@@H](CCC(N)=O)C(=O)N[C@@H](CCCNC(=N)N)C(=O)N1CCC[C@H]1C(=O)N[C@@H](CCCCNC(=N)N)C(=O)N[C@@H](CC1CCCCC1)C(=O)N[C@@H](CO)C(=O)N[C@@H](Cc1c[nH]cn1)C(=O)N[C@@H](CCCCN)C(=O)NCC(=O)N1[C@H](C(=O)N[C@@H](CCCC)C(=O)N2CCC[C@H]2C(=O)N[C@@H](Cc2ccc(Cl)cc2)C(=O)O)C[C@@H]2CCCC[C@@H]21)C(=O)O` [compound 338] ({Tridecanoyl-γGlu-AEEA-AEEA}-[Nle]QRP[hArg][Cha]SHKG[Oic][Nle]P[Phe(4-Cl)]-OH), the amount remaining at 4 h, 5 μM in series [1] was 76%; in series [2], 12%; in series [3] it was 1%.
The matching figures for `CCCCCCCCCCCCC(=O)N[C@@H](CCC(=O)NCCOCCOCC(=O)NCCOCCOCC(=O)N[C@@H](CCCNC(=N)N)C(=O)N[C@@H](CCC(N)=O)C(=O)N[C@@H](CCCC)C(=O)N1CCC[C@H]1C(=O)N[C@@H](CCCCNC(=N)N)C(=O)N[C@@H](CC1CCCCC1)C(=O)N[C@@H](CO)C(=O)N[C@@H](Cc1c[nH]cn1)C(=O)N[C@@H](CCCCN)C(=O)NCC(=O)N1[C@H](C(=O)N[C@@H](CCCC)C(=O)N2CCC[C@H]2C(=O)N[C@@H](Cc2ccc(Cl)cc2)C(=O)O)C[C@@H]2CCCC[C@@H]21)C(=O)O` [compound 339] ({Tridecanoyl-γGlu-AEEA-AEEA}-RQ[Nle]P[hArg][Cha]SHKG[Oic][Nle]P[Phe(4-Cl)]-OH): 93%, 13% and 2%.
As to `CCCCCCCCCCCCC(=O)N[C@@H](CCC(=O)NCCOCCOCC(=O)NCCOCCOCC(=O)N[C@@H](CCCNC(=N)N)C(=O)N[C@@H](CCC(N)=O)C(=O)N[C@@H](CCCNC(=N)N)C(=O)N1CCC[C@H]1C(=O)N[C@@H](CCCC)C(=O)N[C@@H](CC1CCCCC1)C(=O)N[C@@H](C)C(=O)N[C@@H](Cc1c[nH]cn1)C(=O)N[C@@H](CCCCN)C(=O)NCC(=O)N1[C@H](C(=O)N[C@@H](CCCC)C(=O)N2CCC[C@H]2C(=O)N[C@@H](Cc2ccc(Cl)cc2)C(=O)O)C[C@@H]2CCCC[C@@H]21)C(=O)O` [compound 344] ({Tridecanoyl-γGlu-AEEA-AEEA}-RQRP[Nle][Cha]AHKG[Oic][Nle]P[Phe(4-Cl)]-OH), the share remaining at 4 h, 5 μM in series [1] turned out to be 88%; in series [2], 6%; in series [3], 0%.
The matching figures for `CCCCCCCCCCCCC(=O)N[C@@H](CCC(=O)NCCOCCOCC(=O)NCCOCCOCC(=O)N[C@@H](CCC(N)=O)C(=O)N[C@@H](CCCNC(=N)N)C(=O)N1CCC[C@H]1C(=O)N[C@@H](CCCCNC(=N)N)C(=O)N[C@@H](CC(C)C)C(=O)N[C@@H](CO)C(=O)N[C@@H](Cc1c[nH]cn1)C(=O)N[C@@H](CCCCN)C(=O)NCC(=O)N1[C@H](C(=O)N[C@@H](CCCC)C(=O)N2CCC[C@H]2C(=O)N[C@@H](Cc2ccc(Cl)cc2)C(=O)O)C[C@@H]2CCCC[C@@H]21)C(=O)O` [compound 356] ({Tridecanoyl-γGlu-AEEA-AEEA}-QRP[hArg]LSHKG[Oic][Nle]P[Phe(4-Cl)]-OH): 87%, 2% and 0%.
Turning to `CCCCCCCCCCCCC(=O)N[C@@H](CCC(=O)NCCOCCOCC(=O)NCCOCCOCC(=O)N[C@@H](CCC(N)=O)C(=O)N[C@@H](CCCNC(=N)N)C(=O)N1CCC[C@H]1C(=O)N(C)[C@@H](CCCNC(=N)N)C(=O)N[C@@H](CC1CCCCC1)C(=O)N[C@@H](CO)C(=O)N[C@@H](Cc1c[nH]cn1)C(=O)N[C@@H](CCCCN)C(=O)NCC(=O)N1CCC[C@H]1C(=O)N[C@@H](CCCC)C(=O)N1CCC[C@H]1C(=O)N[C@@H](Cc1ccc(Cl)cc1)C(=O)O)C(=O)O` [compound 361] ({Tridecanoyl-γGlu-AEEA-AEEA}-QRP[NMeR][Cha]SHKGP[Nle]P[Phe(4-Cl)]-OH), the amount remaining at 4 h, 5 μM in series [1] turned out to be 34.5%; in series [2] it was 1.5%; in series [3], 0.5%.
The matching figures for `CCCCCCCCCCCCC(=O)N[C@@H](CCC(=O)NCCOCCOCC(=O)NCCOCCOCC(=O)N[C@H](CCC(N)=O)C(=O)N[C@@H](CCCCNC(=N)N)C(=O)N1CCC[C@H]1C(=O)N[C@H](CCCNC(=N)N)C(=O)N[C@@H](CC1CCCCC1)C(=O)N[C@@H](CO)C(=O)N[C@@H](Cc1c[nH]cn1)C(=O)N[C@@H](CCCCN)C(=O)N[C@H](C(=O)N1[C@H](C(=O)N[C@@H](CCCC)C(=O)N2CCC[C@H]2C(=O)N[C@@H](Cc2ccc(Cl)cc2)C(=O)O)C[C@@H]2CCCC[C@@H]21)C(C)(C)C)C(=O)O` [compound 371] ({Tridecanoyl-γGlu-AEEA-AEEA}-[dQ][hArg]P[dR][Cha]SHK[Tle][Oic][Nle]P[Phe(4-Cl)]-OH): 90%, 81% and 28%.
The matching figures for `CCCCCCCCCCCCC(=O)N[C@@H](CCC(=O)NCCOCCOCC(=O)NCCOCCOCC(=O)N[C@H](CCC(N)=O)C(=O)N[C@@H](CCCNC(=N)N)C(=O)N1CCC[C@H]1C(=O)N(C)[C@@H](CCCNC(=N)N)C(=O)N[C@@H](CC1CCCCC1)C(=O)N[C@@H](CO)C(=O)N[C@@H](Cc1c[nH]cn1)C(=O)N[C@@H](CCCCN)C(=O)NCC(=O)N1[C@H](C(=O)N[C@@H](CCCC)C(=O)N2CCC[C@H]2C(=O)N[C@@H](Cc2ccc(Cl)cc2)C(=O)O)C[C@@H]2CCCC[C@@H]21)C(=O)O` [compound 377] ({Tridecanoyl-γGlu-AEEA-AEEA}-[dQ]RP[NMeR][Cha]SHKG[Oic][Nle]P[Phe(4-Cl)]-OH): 65%, 4% and 99%.
For the molecule `CCCCCCCCCCCCC(=O)N[C@@H](CCC(=O)NCCOCCOCC(=O)NCCOCCOCC(=O)N[C@@H](CCC(N)=O)C(=O)N[C@@H](CCCNC(=N)N)C(=O)N1CCC[C@H]1C(=O)N(C)[C@@H](CCCNC(=N)N)C(=O)N[C@@H](CC1CCCCC1)C(=O)N[C@@H](CO)C(=O)N[C@@H](Cc1c[nH]cn1)C(=O)N[C@@H](CCCCN)C(=O)NCC(=O)N1[C@H](C(=O)N[C@@H](CCCC)C(=O)N2CCC[C@H]2C(=O)N[C@@H](CC(=O)O)Cc2ccccc2)C[C@@H]2CCCC[C@@H]21)C(=O)O` [compound 380] ({Tridecanoyl-γGlu-AEEA-AEEA}-QRP[NMeR][Cha]SHKG[Oic][Nle]P[d(β3hF)]-OH), the amount remaining at 4 h, 5 μM in series [1] came out at 97%; in series [2], 2%; in series [3] it was 1%.
Turning to `CCCCCCCCCCCCC(=O)N[C@@H](CCC(=O)NCCOCCOCC(=O)NCCOCCOCC(=O)N[C@@H](CCC(N)=O)C(=O)N[C@@H](CCCNC(=N)N)C(=O)N1CCC[C@H]1C(=O)N(C)[C@@H](CCCNC(=N)N)C(=O)N[C@@](C)(CC(C)C)C(=O)N[C@@H](CO)C(=O)N[C@@H](Cc1c[nH]cn1)C(=O)N[C@@H](CCCCN)C(=O)NCC(=O)N1CCC[C@@]1(C)C(=O)N[C@@H](CCCC)C(=O)N1CCC[C@H]1C(=O)N[C@@H](Cc1ccc(Cl)cc1)C(=O)O)C(=O)O` [compound 387], the values for the amount remaining at 4 h, 5 μM in series [1], in series [2] and in series [3] were 73%, 4% and 1%, respectively.
Consider `CCCCCCCCCCCCC(=O)N[C@@H](CCC(=O)NCCOCCOCC(=O)NCCOCCOCC(=O)N[C@@H](CCC(N)=O)C(=O)N[C@@H](CCCNC(=N)N)C(=O)N1CCC[C@H]1C(=O)N(C)[C@@H](CCCNC(=N)N)C(=O)N[C@H](CC(=O)N[C@@H](CO)C(=O)N[C@@H](Cc1c[nH]cn1)C(=O)N[C@@H](CCCCN)C(=O)NCC(=O)N1[C@H](C(=O)N[C@@H](CCCC)C(=O)N2CCC[C@H]2C(=O)N[C@@H](Cc2ccc(Cl)cc2)C(=O)O)C[C@@H]2CCCC[C@@H]21)C(C)C)C(=O)O` [compound 391] ({Tridecanoyl-γGlu-AEEA-AEEA}-QRP[NMeR][β3hV]SHKG[Oic][Nle]P[Phe(4-Cl)]-OH), for which the fraction remaining at 4 h, 5 μM turned out to be 2% in series [1], 5% in series [2] and 2% in series [3].
Take `CCCCCCCCCCCCC(=O)N[C@@H](CCC(=O)NCCOCCOCC(=O)NCCOCCOCC(=O)N[C@@H](CCC(N)=O)C(=O)N[C@@H](CCCNC(=N)N)C(=O)N1CCCC1(C)C(=O)N[C@@H](CCCCNC(=N)N)C(=O)NC(CC(=O)N[C@@H](CO)C(=O)N[C@@H](Cc1c[nH]cn1)C(=O)N[C@@H](CCCCN)C(=O)NCC(=O)N1[C@H](C(=O)N[C@@H](CCCC)C(=O)N2CCC[C@H]2C(=O)N[C@@H](Cc2ccc(Cl)cc2)C(=O)O)C[C@@H]2CCCC[C@@H]21)C(C)C)C(=O)O` (stereo partly drawn) [compound 392] ({Tridecanoyl-γGlu-AEEA-AEEA}-QR[ξαMeP][hArg][ξβ3hV]SHKG[Oic][Nle]P[Phe(4-Cl)]-OH): the fraction remaining at 4 h, 5 μM is 73% in series [1], 82% in series [2] and less than 1% in series [3].
The matching figures for `CCCCCCCCCCCCC(=O)N[C@@H](CCC(=O)NCCOCCOCC(=O)NCCOCCOCC(=O)N[C@H](CC(=O)N[C@@H](CCCNC(=N)N)C(=O)N1CCC[C@H]1C(=O)N(C)[C@@H](CCCNC(=N)N)C(=O)N[C@@H](CC1CCCCC1)C(=O)N[C@@H](CO)C(=O)N[C@@H](Cc1c[nH]cn1)C(=O)N[C@@H](CCCCN)C(=O)NCC(=O)N1[C@H](C(=O)N[C@@H](CCCC)C(=O)N2CCC[C@H]2C(=O)N[C@@H](Cc2ccc(Cl)cc2)C(=O)O)C[C@@H]2CCCC[C@@H]21)C(C)C)C(=O)O` [compound 393] ({Tridecanoyl-γGlu-AEEA-AEEA}-[β3hV]RP[NMeR][Cha]SHKG[Oic][Nle]P[Phe(4-Cl)]-OH): greater than 90%, 12% and 2%.
